Test results from patent US20020051978A1, “Methods and compositions for the identification, assessment, prevention and therapy of human cancers” (priority 2000, published 2002).

System: 60 cancer cell lines (NCI 60 cancer cell line series)
Experiment: NCI-DTP in vitro cancer screen, sulforhodamine B (SRB) growth inhibition, 48 hour exposure
Format: cell-based, human
Design: key to sensitivity class Ovarian OVCAR-8 CL6005 / sensitivity class Ovarian SK-OV-3 CL6011 / sensitivity class Prostate DU-145 CL11003 / sensitivity class NSCLC NCI-H522 CL1003 / sensitivity class Ovarian IGROV1 CL6010 / sensitivity class Ovarian OVCAR-4 CL6002 / sensitivity class Prostate PC-3(I) CL11001 / sensitivity class Renal A498 CL9013 / sensitivity class Renal SN12C CL9008: sensitivity class: 1 = Low, 2 = Medium, 3 = High
Procedure, shortened: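 Sixty NCI-DTP cancer lines plated at line-specific densities, dosed on day 1 in duplicate with 5 concentrations at ten-fold intervals. After 48 h exposure, cell mass read by SRB staining; GI50 (50% growth inhibition) taken from dose-response curves and expressed as -log GI50.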

Structure (SMILES): O=C1c2c(O)ccc(O)c2C(=O)c2c(NCCNCCO)ccc(NCCNCCO)c21 [Mitoxantrone]
- classification of cell line as Low(1), Medium(2) or High(3) sensitivity to compound (Breast BT-549 (CL5013)): 2
- classification of cell line as Low(1), Medium(2) or High(3) sensitivity to compound (Breast HS-578T CL5006): 2
- classification of cell line as Low(1), Medium(2) or High(3) sensitivity to compound (Breast MCF7(I) (CL5001)): 3
- classification of cell line as Low(1), Medium(2) or High(3) sensitivity to compound (Breast MCF7/ADRr (CL5002)): 1
- classification of cell line as Low(1), Medium(2) or High(3) sensitivity to compound (Breast MDA-MB-231 CL5005): 1
- classification of cell line as Low(1), Medium(2) or High(3) sensitivity to compound (Breast MDA-MB-435 (CL5011)): 1
- classification of cell line as Low(1), Medium(2) or High(3) sensitivity to compound (Breast MDA-N CL5012): 1
- classification of cell line as Low(1), Medium(2) or High(3) sensitivity to compound (Breast T-47D (CL5014)): 2
- classification of cell line as Low(1), Medium(2) or High(3) sensitivity to compound (CNS SF-268 CL12014): 2
- classification of cell line as Low(1), Medium(2) or High(3) sensitivity to compound (CNS SF-295 CL12015): 2
- classification of cell line as Low(1), Medium(2) or High(3) sensitivity to compound (CNS SF-539 CL12016): 3
- classification of cell line as Low(1), Medium(2) or High(3) sensitivity to compound (CNS SNB-19 (CL12002)): 3
- classification of cell line as Low(1), Medium(2) or High(3) sensitivity to compound (CNS SNB-75(I) CL12005): 3
- classification of cell line as Low(1), Medium(2) or High(3) sensitivity to compound (CNS U251(I) CL12009): 3
- classification of cell line as Low(1), Medium(2) or High(3) sensitivity to compound (Colon COLO-250 CL4010): 2
- classification of cell line as Low(1), Medium(2) or High(3) sensitivity to compound (Colon HCC-2998 (CL4002)): 1
- classification of cell line as Low(1), Medium(2) or High(3) sensitivity to compound (Colon HCT-15 CL4015): 1
- classification of cell line as Low(1), Medium(2) or High(3) sensitivity to compound (Colon HCT-116 (CL4003)): 2
- classification of cell line as Low(1), Medium(2) or High(3) sensitivity to compound (Colon HT29(I) CL4001): 1
- classification of cell line as Low(1), Medium(2) or High(3) sensitivity to compound (Colon KM12 (CL4017)): 1
- classification of cell line as Low(1), Medium(2) or High(3) sensitivity to compound (Colon SW-620 (CL4009)): 2
- classification of cell line as Low(1), Medium(2) or High(3) sensitivity to compound (Leukemia CCRF-CEM(I) (CL7003)): 3
- classification of cell line as Low(1), Medium(2) or High(3) sensitivity to compound (Leukemia HL-60(I) (CL7008)): 3
- classification of cell line as Low(1), Medium(2) or High(3) sensitivity to compound (Leukemia K562(I) CL7005): 2
- classification of cell line as Low(1), Medium(2) or High(3) sensitivity to compound (Leukemia MOLT-4 (CL7006)): 3
- classification of cell line as Low(1), Medium(2) or High(3) sensitivity to compound (Leukemia RPMI-8226(I) (CL7010)): 2
- classification of cell line as Low(1), Medium(2) or High(3) sensitivity to compound (Leukemia SR CL7019): 3
- classification of cell line as Low(1), Medium(2) or High(3) sensitivity to compound (Melanoma LOX IMVI CL10001): 2
- classification of cell line as Low(1), Medium(2) or High(3) sensitivity to compound (Melanoma M14 (CL10014)): 2
- classification of cell line as Low(1), Medium(2) or High(3) sensitivity to compound (Melanoma MALME-3M CL10002): 2
- classification of cell line as Low(1), Medium(2) or High(3) sensitivity to compound (Melanoma SK-MEL-2 (CL10005)): 1
- classification of cell line as Low(1), Medium(2) or High(3) sensitivity to compound (Melanoma SK-MEL-5 (CL10007)): 2
- classification of cell line as Low(1), Medium(2) or High(3) sensitivity to compound (Melanoma SK-MEL-28 (CL10008)): 1
- classification of cell line as Low(1), Medium(2) or High(3) sensitivity to compound (Melanoma UACC-62 (CL10020)): 2
- classification of cell line as Low(1), Medium(2) or High(3) sensitivity to compound (Melanoma UACC-257 (CL10021)): 1
- classification of cell line as Low(1), Medium(2) or High(3) sensitivity to compound (NSCLC A549/ATCC (CL1004)): 3
- classification of cell line as Low(1), Medium(2) or High(3) sensitivity to compound (NSCLC EKVX (CL1008)): 1
- classification of cell line as Low(1), Medium(2) or High(3) sensitivity to compound (NSCLC HOP-62 (CL1026)): 3
- classification of cell line as Low(1), Medium(2) or High(3) sensitivity to compound (NSCLC HOP-92 (CL1029)): 3
- classification of cell line as Low(1), Medium(2) or High(3) sensitivity to compound (NSCLC NCI-H226 CL1013): 3
- sensitivity class NSCLC NCI-H23(I) CL1001 (cell line NSCLC NCI-H23(I), CL1001): 2
- sensitivity class NSCLC NCI-H332M CL1017 (cell line NSCLC NCI-H332M, CL1017): 1
- sensitivity class NSCLC NCI-H460 CL1021 (cell line NSCLC NCI-H460, CL1021): 3
- sensitivity class NSCLC NCI-H522 CL1003 (cell line NSCLC NCI-H522, CL1003): 2
- sensitivity class Ovarian IGROV1 CL6010 (cell line Ovarian IGROV1, CL6010): 2
- sensitivity class Ovarian OVCAR-3 CL6001 (cell line Ovarian OVCAR-3, CL6001): 1
- sensitivity class Ovarian OVCAR-4 CL6002 (cell line Ovarian OVCAR-4, CL6002): 1
- sensitivity class Ovarian OVCAR-5 CL6003 (cell line Ovarian OVCAR-5, CL6003): 1
- sensitivity class Ovarian OVCAR-8 CL6005 (cell line Ovarian OVCAR-8, CL6005): 2
- sensitivity class Ovarian SK-OV-3 CL6011 (cell line Ovarian SK-OV-3, CL6011): 2
- sensitivity class Prostate DU-145 CL11003 (cell line Prostate DU-145, CL11003): 2
- sensitivity class Prostate PC-3(I) CL11001 (cell line Prostate PC-3(I), CL11001): 2
- sensitivity class Renal 786-O CL9018 (cell line Renal 786-O, CL9018): 2
- sensitivity class Renal A498 CL9013 (cell line Renal A498, CL9013): 2
- sensitivity class Renal ACHN CL9023 (cell line Renal ACHN, CL9023): 3
- sensitivity class Renal CAKI-1 CL9015 (cell line Renal CAKI-1, CL9015): 3
- sensitivity class Renal RXF-393 CL9016 (cell line Renal RXF-393, CL9016): 2
- sensitivity class Renal SN12C CL9008 (cell line Renal SN12C, CL9008): 3
- sensitivity class Renal TK10 CL9024 (cell line Renal TK10, CL9024): 1
- sensitivity class Renal UO-31 CL9004 (cell line Renal UO-31, CL9004): 1
